Patent publication US8748569B2, “Peptide amphiphiles and methods to electrostatically control bioactivity of the ikvav peptide epitope” (Northwestern University, priority 2011, dated 2014)
Peptide text beside a SMILES is read from it. * marks the point of attachment. Palmitoyl = CCCCCCCCCCCCCCCC(=O)*

Columns and labels:
[1] = system: P19 embryonal carcinoma cells differentiated into neurons; experiment: Neurite outgrowth of neurons cultured in peptide amphiphile gels; format: cell-based, murine; conditions: compared to gels of PA 1; for promotion of neurite outgrowth (in words): gels containing 0.2 wt % of the PA with 0.8 wt % PA 1
Protocol: P19 embryonal carcinoma cells were cultured in media composed of α-MEM (Gibco), 7.5% newborn calf serum (Lonza), 2.5% fetal bovine serum (Gibco), penicillin (100 units/ml) and streptomycin (100 ug/ml) (Invitrogen). Neuronal differentiation was induced by plating P19 cells in non-treated Petri dishes in media containing 5 uM retinoic acid (Sigma) for 4 days. Neurospheres were collected from the Petri dish and allowed to settle in a centrifuge tube for 10 minutes. Media was removed, then trypsin/EDTA solution was added and the tube was gently agitated for 5 minutes. Cells were dissociated by triturating the neurospheres, then media was added to inactivate the trypsin. Cells were centrifuged and the pellet resuspended in media to a concentration of 25,000 cells/ul. Cells were mixed (1:4) with PA solution. The PA/cell solution was pipetted into coverslip-bottom culture dishes (MatTek) and covered with gelling solution (150 mM NaCl, 3 mM KCl, 25 mM CaCl2) for 1 minute to induce gelation, then rinsed with a 150 mM NaCl, 3 mM KCl solution, then media was added to the dish. Cells were cultured for 2 days.
In order to assay neurite outgrowth, gels were rinsed with PBS, then fixed in 4% paraformaldehyde for 30 minutes at room temperature. Gels were rinsed 3× with PBS followed by addition of 10% normal goat serum blocking solution (Invitrogen) with 0.1% Triton X-100 added. Gels were incubated overnight with primary antibody (rabbit anti-β-III-tubulin IgG, 1/2000, Covance) in blocking solution. Gels were rinsed 3× with PBS, then blocked for 30 minutes with blocking solution. Next, gels were incubated with secondary antibody (Alexa Fluor 488 goat anti-rabbit IgG, 1/100, Invitrogen) in blocking solution for 1 hour. After one PBS rinse, nuclei were stained with a 5 ug/ml solution of Hoecsht 34580 (Invitrogen) in PBS for 15 minutes, then rinsed 4 times. Gels were imaged on a Zeiss LSM 510 META laser scanning confocal microscope, individually acquiring z-stacks of randomly chosen cells with neurites. Two gels were imaged per condition for each experiment. Experiments were done in triplicate. For each condition, at least 50 neurons with neurites were imaged. Using the Simple Neurite Tracer plug-in for ImageJ software, neurites were traced and measured. A one-way ANOVA, followed by paired t-tests, were performed to determine significance between conditions. Researchers were blinded to the conditions during imaging and tracing.
Pluripotent murine P19 embryonal carcinoma cells were differentiated into neurons. These neurons were then homogeneously distributed into isotonic salt solutions composed of 0.8 wt % PA 1 mixed with 0.2 wt % 2-5 and gelled with 25 mM CaCl2 (FIG. 3a,b). Mixtures of 1 with 2-5 were used in biological experiments in order to form robust gel matrices capable of supporting cells in culture. After two days of culture, the cells were fixed and the neurites and nuclei were fluorescently labelled green and blue using β-III-tubulin immunostaining and Hoechst staining, respectively, then imaged by confocal microscopy (FIG. 14). Neurites were traced and measured, and average neurite lengths were calculated (FIG. 15).

[2] = Small-angle X-ray scattering (SAXS) of PA nanostructures; format: physicochemical; conditions: (Core) Shell Cylinder SAXS model; for Total SAXS Cross-section dimensions: diameter
Source text: Small-angle X-ray scattering (SAXS) measurements were obtained using a Rigaku S-MAX 3000 High Brilliance SAXS System. Cu Ka radiation was generated by Osmic MicroMaxs, an integrated microfocus sealed tube generator (powered at 45 kV and 0.9 mA) with Osmict Confocal Max-Fluxs optics, 3 pinholes collimation. A 20×20 cm^2 2D position-sensitive wire detector (1024×1024 pixels) was positioned 150 cm behind the examined samples, resulting in a q-range of 0.07-2.8 nm^−1. The wave vector defined as, q=(4π/λ)sin(2θ/2), where 2y is the scattering angle and λ is wavelength of Cu Kα radiation (1.542 Å). A total of 10^6 or more counts were collected in order to obtain a high signal to noise ratio. Samples were measured for 3600 s, and then background subtracted from data collected using a capillary containing the isotonic salt solution. The 2D SAXS patterns were azimuthally averaged and the background subtracted using standard methods. Data analysis was based on fitting the scattering curve to an appropriate model by a least-squares method using software provided by NIST (NIST SANS analysis version 7.0 on IGOR) ^21 The table below lists the models used to fit the SAXS curves. The Total SAXS cross-sectional dimensions correspond to length and width for molecule 2, and diameter for 3-5.

[3] = Transmission electron microscopy (cryoTEM / conventional TEM) of PA nanostructures; format: physicochemical; conditions: for fiber diameter in trimer ribbons: cryoTEM / TEM, fibers aggregated side-by-side; for OBSERVED FIBER DIAMETER: from TEM; for ASSEMBLED MORPHOLOGY: observed morphologies from TEM
Protocol: The nanostructure of each PA molecule under physiologically relevant conditions was investigated using electron microscopy. Samples for vitreous ice cryo-transmission electron microscopy (cryoTEM) were prepared from a 0.1-0.5 wt % PA solution dissolved in 150 mM NaCl, 3 mM KCl, or in a 150 mM NaCl, 3 mM KCl, and 5 mM CaCl2 solution, both at a pH of 7.2-7.4. The solutions were then heated to 80° C. in a water bath for 1 hr, and then slowly cooled to room temperature over the course of 8 hr. 10 μL of each solution was pipetted onto a plasma cleaned holey carbon TEM grid (Electron Microscopy Sciences), blotted and plunged into liquid ethane using a FEI Vitrobot Mark IV. Samples were kept at −180° C. and imaged using a JEOL 1230 TEM operating at 100 kV.
Samples for conventional TEM microscopy were prepared from 0.1 wt % PA solution dissolved in ultrapure water and adjusted to a pH of 7.2-7.4 by adding NaOH. The solutions were then heated to 80° C. in a water bath for 1 hr, and then slowly cooled to room temperature over the course of 8 hr, unless noted otherwise. 2 μL of a 0.1 wt % PA solution was pipetted onto a Carbon Formvar grid (Electron Microscopy Sciences) and allowed to dry. The samples were then negatively stained by pipetting 2 uL of a 2 wt % Uranyl acetate solution and allowed to dry. Each sample was imaged using a JEOL 1230 TEM operating at 100 kV. The average diameter of nanofibers was obtained via measuring 40-100 different fibers from solutions and grids prepared throughout multiple days.
The assembly of each PA molecule under physiologically relevant conditions was examined using cryogenic electron microscopy (cryoTEM), as described in Example 4. PAs were dissolved in isotonic salt solutions resembling extracellular fluid (150 mM NaCl, 3 mM KCl, pH 7.4). […] In order to compare molecular simulation diameters with those observed from TEM, molecular simulation values for the other four PA molecules were scaled by the same amount, 87%.

[4] = Solubility in physiologically relevant monovalent salt solution; format: physicochemical; conditions: monovalent salt solution composed of 150 mM NaCl and 3 mM KCl
Circular dichroism (CD) = format: physicochemical; conditions: 1 wt % in 150 mM NaCl, 3 mM KCl
Protocol: CD was done using a model J-715 Jasco Circular Dichroism Spectrometer. 1 wt % PA solutions were prepared in either a 150 mM NaCl, 3 mM KCl solution or a 150 mM NaCl, 3 mM KCl, and 5 mM CaCl2 solution, both at a pH of 7.2-7.4, as determined via pH paper. The solutions were then heated to 80° C. in a water bath for 1 hr, and then slowly cooled to room temperature over the course of 8 hr. The samples were measured through 0.01 mm quartz plates. Each trace represents the average of three scans. The mean residue ellipticity was corrected for purity of the lyophilized powder from peptide content analysis.

With `CCCCCCCCCCCCCCCC(=O)N[C@H](C(=O)N[C@H](C(=O)N[C@@H](C)C(=O)N[C@@H](C)C(=O)N[C@@H](CCC(=O)O)C(=O)N[C@@H](CCC(=O)O)C(=O)N[C@@H](CCC(=O)O)C(=O)NCC(=O)N[C@H](C(=O)N[C@@H](CCCCN)C(=O)N[C@H](C(=O)N[C@@H](C)C(=O)N[C@H](C(=O)O)C(C)C)C(C)C)[C@@H](C)CC)C(C)C)C(C)C` [PA 3, CH3(CH2)14C(O)-VVAAEEEGIKVAV-OH] (Palmitoyl-VVAAEEEGIKVAV-OH) as the molecule, how does the “promotion of neurite outgrowth (in words)” value (shortened to “promotion”) [1] read?
The value was “promoted neurite outgrowth”.

And the “promotion” value ([1]; listed as SEQ ID NO. 5)?
Its value is “promote neurite outgrowth”.

What about the “increase in neurite outgrowth” value ([1]; gels of 0.8 wt % PA 1 mixed with 0.2 wt % of the PA, gelled with 25 mM CaCl2, 2 days culture) of the same molecule?
The value was 42±13%.

And the “Core Diameter” value [2]?
Its value is 1.2 nm.

And the “Shell Thickness” value [2]?
The value was 3.8 ± 0.6 nm.

And the “Total SAXS Cross-section dimensions” value [2]?
Its value is 7.6 ± 1.2 nm.

What about the “fiber diameter in trimer ribbons” value [3] of the same molecule?
The value was 7.1±1 nm.

And the “diameter of cylindrical assemblies” value ([3]; cryoTEM and conventional TEM)?
Its value is 12.8±1.3 nm.

And the “OBSERVED FIBER DIAMETER” value ([3]; Cylindrical morphology)?
The value was 128 ± 14 Å.

And the “OBSERVED FIBER DIAMETER” value ([3]; Trimer ribbon morphology)?
The value was 71 ± 5 Å.

And the “ASSEMBLED MORPHOLOGY” value ([3]; Cylindrical morphology)?
The value was “Cylindrical”.

And the “ASSEMBLED MORPHOLOGY” value ([3]; Trimer ribbon morphology)?
Its value is “Trimer ribbon”.

What about the solubility [4] of the same molecule?
The solubility was “soluble”.

What about the “peptide secondary structure from CD spectrum” value (Circular dichroism (CD)) of the same molecule?
The value was “beta-sheet like CD signatures”.

What does the source list for “CH3(CH2)14C(O)-VVAAEEEGGIKVAV-OH (Palmitoyl-VVAAEEEGGIKVAV-OH; SMILES CCCCCCCCCCCCCCCC(=O)N[C@H](C(=O)N[C@H](C(=O)N[C@@H](C)C(=O)N[C@@H](C)C(=O)N[C@@H](CCC(=O)O)C(=O)N[C@@H](CCC(=O)O)C(=O)N[C@@H](CCC(=O)O)C(=O)NCC(=O)NCC(=O)N[C@H](C(=O)N[C@@H](CCCCN)C(=O)N[C@H](C(=O)N[C@@H](C)C(=O)N[C@H](C(=O)O)C(C)C)C(C)C)[C@@H](C)CC)C(C)C)C(C)C) [PA 4]”?
promotion of neurite outgrowth (in words) [1]: did not show any biological activity with respect to neurite outgrowth; promotion of neurite outgrowth (in words) ([1]; listed as 4): did not; Core Diameter [2]: .93 nm; Shell Thickness [2]: 2.63 ± 1.1 nm; Total SAXS Cross-section dimensions [2]: 7.1 ± 2.2 nm; fiber diameter in bundled dimers ([3]; cryoTEM and conventional TEM): 8.1±1.0 nm; fiber diameter in triple helices ([3]; cryoTEM and conventional TEM): 7.7±0.9 nm; OBSERVED FIBER DIAMETER ([3]; Dimer Bundle morphology): 77 ± 9 Å; OBSERVED FIBER DIAMETER ([3]; Triple helix morphology): 81 ± 10 Å; ASSEMBLED MORPHOLOGY ([3]; Dimer Bundle morphology): Dimer Bundle; ASSEMBLED MORPHOLOGY ([3]; Triple helix morphology): Triple helix

Which “promotion” value [1] does the source give for “CH3(CH2)14C(O)-VVAAEEGIKVAV-OH (Palmitoyl-VVAAEEGIKVAV-OH; SMILES CCCCCCCCCCCCCCCC(=O)N[C@H](C(=O)N[C@H](C(=O)N[C@@H](C)C(=O)N[C@@H](C)C(=O)N[C@@H](CCC(=O)O)C(=O)N[C@@H](CCC(=O)O)C(=O)NCC(=O)N[C@H](C(=O)N[C@@H](CCCCN)C(=O)N[C@H](C(=O)N[C@@H](C)C(=O)N[C@H](C(=O)O)C(C)C)C(C)C)[C@@H](C)CC)C(C)C)C(C)C) [PA 2]” here?
Its value is “no enhancement of neurite outgrowth”.

What about the “promotion” value ([1]; listed as 2) of the same molecule?
The value was “did not”.

And the “fiber diameter in trimer ribbons” value [3]?
The value was 6.0±0.5 nm.

What about the “OBSERVED FIBER DIAMETER” value [3] of the same molecule?
Its value is 60 ± 5 Å.

And the “ASSEMBLED MORPHOLOGY” value [3]?
Its value is “Trimer ribbon”.

And the “peptide secondary structure from CD spectrum” value (Circular dichroism (CD))?
The value was “beta-sheet like CD signatures”.
